Results on one compound are retold here after patent publication US20130231262A1, “ENGINEERED PROTEIN: "2-COLOR SERCA", AN ION-MOTIVE ATPase FUSED TO CERULEAN AND YELLOW FLUORESCENT PROTEIN” (LOYOLA UNIVERSITY CHICAGO, priority 2012, published 2013).

Experiment [1] deals with 2-color SERCA (construct 509). To be noted: cited from earlier work.
The target of experiment [2] is T1, 2-color SERCA (construct 509) (Canis lupus familiaris, UniProt O46674).
T1 construct: other: Tg-dependent FRET change of construct 509; mCerulean (Cer) was fused to the N-terminus of canine SERCA2a; fused on or other part: mCerulean at the N-terminus
As to the kind of experiment: Tg titration of 2-color SERCA FRET change in AAV-293 cells. It is filed as cell-based, canine. The method, then: One consequence of the slow FRET response at low concentrations of Tg is that the apparent EC50 decreased over time. This is evident in FIG. 8B as a left shift in the binding curve with time. This change is quantified in FIG. 8C. The apparent upper limit estimate of EC50 (obtained from the final EC50 value) was approximately 100 nM, which is compatible with the subnanomolar affinity of the Tg-SERCA complex.

pEC50: −log10 of the molar value.

T1 sequence (O46674 whole entry, the tested form may be a part): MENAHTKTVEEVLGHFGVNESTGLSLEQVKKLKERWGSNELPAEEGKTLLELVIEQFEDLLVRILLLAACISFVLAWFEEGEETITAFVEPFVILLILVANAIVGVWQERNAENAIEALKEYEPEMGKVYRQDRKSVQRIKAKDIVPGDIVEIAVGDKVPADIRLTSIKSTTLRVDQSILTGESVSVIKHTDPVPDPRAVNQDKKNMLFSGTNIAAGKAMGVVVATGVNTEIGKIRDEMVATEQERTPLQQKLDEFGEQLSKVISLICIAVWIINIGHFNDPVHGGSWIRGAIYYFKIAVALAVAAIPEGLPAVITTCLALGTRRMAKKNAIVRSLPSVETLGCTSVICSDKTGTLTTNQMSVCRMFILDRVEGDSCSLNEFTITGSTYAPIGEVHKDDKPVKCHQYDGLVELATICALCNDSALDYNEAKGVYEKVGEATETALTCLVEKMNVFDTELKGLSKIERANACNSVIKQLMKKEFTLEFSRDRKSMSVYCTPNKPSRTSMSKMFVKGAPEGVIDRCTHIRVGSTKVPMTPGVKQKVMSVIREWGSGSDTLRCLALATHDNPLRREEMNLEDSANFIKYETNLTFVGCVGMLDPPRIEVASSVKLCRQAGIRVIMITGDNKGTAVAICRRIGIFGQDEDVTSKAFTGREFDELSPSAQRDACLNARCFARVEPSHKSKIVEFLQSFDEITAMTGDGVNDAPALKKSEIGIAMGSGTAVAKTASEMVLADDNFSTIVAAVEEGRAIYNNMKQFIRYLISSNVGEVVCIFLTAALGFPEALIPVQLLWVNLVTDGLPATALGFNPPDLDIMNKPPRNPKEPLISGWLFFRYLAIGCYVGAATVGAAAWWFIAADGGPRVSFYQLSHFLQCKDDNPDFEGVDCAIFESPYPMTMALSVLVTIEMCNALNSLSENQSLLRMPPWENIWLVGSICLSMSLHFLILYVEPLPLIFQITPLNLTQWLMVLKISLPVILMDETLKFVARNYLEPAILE

Usually pEC50 stands for −log10 of the EC50, conventionally taken in molar units. Turning to `C/C=C(/C)C(=O)O[C@H]1C(C)=C2[C@H]([C@@H]1OC(=O)CCCCCCC)[C@@](C)(OC(C)=O)C[C@H](OC(=O)CCC)[C@@]1(O)[C@H]2OC(=O)[C@@]1(C)O` [Tg, thapsigargin], the “affinity of the Tg-SERCA complex” value in experiment [1] is “subnanomolar”. This compound also showed a pEC50 in experiment [2] of approximately 7.00.
